# Data taken from US20230100193A1, “NOVEL PHARMACEUTICAL FORMULATIONS CONTAINING INDIRUBIN AND DERIVATIVES THEREOF AND METHODS OF MAKING AND USING THE SAME” (Cytodigm, Inc., priority 2017, published 2023).
# Assay: Dissolution measurement after 30 minutes in 2% Tween 20 in PBS, HPLC of supernatant
# Assay type: physicochemical
# Details: after stirring for 30 minutes, centrifuged 14,000 rpm 15 min, HPLC 292 nm, 6-BIA 1.10 mg in 110 mL, nanoparticles approx. 1.32 mg/ml 6-BIA
# Experimental: As a control, dissolution of 6-BIA without polymer was first tested. 1.10 mg of 6-BIA was added to 110 mL of 2% Tween 20 in PBS. After stirring for 30 minutes, 1 mL of the resulting suspension was immediately collected to an Eppendorf tube. The Eppendorf tube was centrifuged at 14,000 rpm for 15 min.
# Encapsulated 6-BIA nanoparticles obtained in Example 4 were re-suspended in 2% Tween 20 in PBS to form a nanoparticle suspension containing approximately 1.32 mg/ml of 6-BIA in the nanoparticles. After stirring for 30 minutes, 1 mL of the resulting suspension was immediately collected to an Eppendorf tube. The Eppendorf tube was centrifuged at 14,000 rpm for 15 min.
smiles,measurement,value
"O=C1Nc2cc(Br)ccc2/C1=C1/Nc2ccccc2/C1=N\O [Example 6-BIA, 6-bromoindirubin-3′-oxime]",6-BIA concentration in supernatant (30-minute dissolution),3.89 µg/mL
